What all share (type): in vivo, human
Assay [1] deals with patient with severe sarcoidosis stadium 3 and secondary pulmonary hypertension. The assay is described as follows: Hemodynamic parameters by right heart catheterization before and after 12 weeks VIP inhalation. The following applies: VIP inhalation 200 μg per day. As to the method:
(§1) A patient with severe sarcoidosis stadium 3 and secondary pulmonary hypertension was under therapy with cortocosteroids, furosemid, oxygen and an anticoagulant. Right heart catheterization (Swan-Ganz, Baxter, Irvine, Calif., USA) was performed to measure mean pulmonary artery pressure (mPAP), cardiac output (CO), mean arterial pressure (MAP), pulmonary capillary wedge pressure (PCWP) mixed venous oxygen saturation (SvO2%) and systemic arterial oxygen pressure (PaO2%) for and after treatment with VIP inhalation (200 μg in 12 ml 0.9% NaCl per day, 4×3 ml per inhalation) for 12 weeks. FEV1 (forced expiratory volume in one second), FVC (forced vital capacity), TLC (total lung capacity), AaDO2 (arterial-alveolar oxygen difference) of sarcoidosis patient is measured according to standard methods for and after treatment with VIP (200 μg in 12 ml 0.9% NaCl per day) for 12 weeks. VIP was inhaled for 12 weeks via the MicroDrop Master Jet (MPV, Truma, Germany) using a particle size of 3 μm to provide alveolar deposition of the substance.
(§2) Hemodynamic and lung function parameters of the sarcoidosis patient before and after the treatment with VIP for 12 weeks are summary in Table 2.

For assay [2] the test system is unchanged. Put plainly: Lung function parameters before and after 12 weeks VIP inhalation. The following applies: after treatment, VIP inhalation 200 μg per day. As to the method:
as §1, §2

Assay [3] shares this test system. The assay is described as follows: 6-minutes walk test. Here is the method: as §1
In the 6-minutes walk test, the patient improved from 210 meters before treatment to 350 meters after the treatment

The substance “His-Ser-Asp-Ala-Val-Phe-Thr-Asp-Asn-Tyr-Thr-Arg-Leu-Arg-Lys-Gln-Met-Ala-Val-Lys-Lys-Tyr-Leu-Asn-Ser-Ile-Leu-Asn [VIP]” registered a CI in assay [1] (after treatment, before treatment 2.1) of 2.7. The “CO (cardiac output)” value in assay [1] (after treatment, before treatment 3.9) worked out at 4.9. Moreover, the “PaO2 (systemic arterial oxygen pressure)” value in assay [1] (after treatment, before treatment 47.0) is 54.0. For the same substance, the “SvO2 (mixed venous oxygen saturation)” value in assay [1] (after treatment, before treatment 49.4) came out at 53.0. Also, the PaCO2 in assay [1] (after treatment, before treatment 55.0) came to 52.0. In assay [1] (after treatment, before treatment 83.2), the SaO2 amounted to 88.0. Further, the “mAP (mean arterial pressure)” value in assay [1] (after treatment, before treatment 84.0) is given as 98.0. Moreover, the “PCWP (pulmonary capillary wedge pressure)” value came out at 10 in assay [1] (first PCWP line of Table 2, after treatment, before treatment 10) and 7.0 in assay [1] (second PCWP line of Table 2, after treatment, before treatment 6.0). Also, the PVR in assay [1] (first PVR line of Table 2, after treatment, before treatment 923) came to 359; in assay [1] (second PVR line of Table 2, after treatment, before treatment 985.0) it was 313.0. The “mPAP (mean pulmonary artery pressure)” value in assay [1] (first mPAP line of Table 2, after treatment, before treatment 55) amounted to 32; in assay [1] (second mPAP line of Table 2, after treatment, before treatment 54.0) it was 26.0. In assay [2] (before treatment 1.2), this substance gave an FEV1 (forced expiratory volume in one second) of 1.1 L. The “FVC (forced vital capacity)” value in assay [2] (before treatment 1.4) is reported as 1.3. In addition, in assay [2] (before treatment 2.3), the “TLC (total lung capacity)” value is 2.7. The “AaDO2 (arterial-alveolar oxygen difference)” value in assay [2] (before treatment 39.0) was 37.0. In addition, the “6-minutes walk test distance” value in assay [3] (after the treatment with VIP for 12 weeks, 210 meters before treatment) was found to be 350 meters. In assay [3] (after treatment, VIP inhalation 200 μg per day, 12 weeks, before treatment 210), this substance registered a 6-Min.WT of 350.

For the origin of these results see patent US7951778B2, “Use of compounds having the biological activity of vasoactive intestinal peptide for the treatment of sarcoidosis” (mondoBIOTECH AG, priority 2002, dated 2011).
